According to publication PMC8870237, “Improved Multimodal Tumor Necrosis Imaging with IRDye800CW-DOTA Conjugated to an Albumin-Binding Domain” (Cancers, 2022):
“Also recorded” adds a separate entry of the source.

Columns and labels:
[1] = n-octanol/PBS distribution coefficient (LogD7.4); format: physicochemical; details: LogD7.4, indium-111 labeled material, triplicates
Protocol: The [^111In]1, [^111In]2, and [^111In]3 were labeled at a molar activity of 10 MBq/nmol and 100 kBq was added to n-octanol (500 µL) and PBS (500 µL). After vigorous vortexing, the vial was centrifuged at 16.1 × 1000 g for 3 min. The octanol phase was carefully pipetted into a new vial and both layers were centrifuged again. From both the organic and the aqueous layers, samples (10 µL) were taken out and counted for activity on a γ-counter. LogD values were calculated as follows: Log ([NACA]n-octanol/[NACA]PBS). These experiments were performed as triplicates.

[2] = In vitro protein binding in mouse serum (ultrafiltration); format: in vitro ADME; details: 37 °C, 30 min, indium-111 labeled material
Protocol: Protein binding of the NACAs was determined as reported elsewhere. The NACAs were labeled with indium-111 (50 MBq/nmol), added to mouse serum (1 MBq/500 µL), and incubated at 37 °C for 30 min. Four portions of 10 µL were taken and counted on a γ-counter. The remaining serum was transferred to a centifree ultrafiltration device (4104 centrifugal filter units; Millipore, 30 kDa nominal molecular weight limit, methylcellulose micro partition membranes equilibrated once with 5% v/v Tween-80 in phosphate-buffered saline (PBS) and then trice with PBS) and centrifuged at 7.0 × 1000 g for 40 min at room temperature. Four portions of 10 µL from the filtrates were counted for radioactivity in a γ-counter. The amount of plasma-bound radioligand was calculated as the fraction between the radioactivity measured in the filtrate portions relative to the corresponding loading solution (set to 100%).

4T1-Luc2 cells [3] = assay: In vitro dead/alive cell binding assay (fluorescence and γ-counting); format: cell-based, mouse; details: 100 nM, EtOH-killed or alive 4T1-Luc2 cells; for dead/alive cell binding, fluorescence signal: non-radioactive precursors, 30 min, 37 °C, 800 nm; for dead/alive cell binding, radioactivity: indium-111 labeled, 2.5 MBq/nmol, γ-counting
Protocol: The 4T1-Luc2 cells were cultured in RPMI-1640 medium containing 10% fetal bovine, penicillin (100 U/mL), and streptomycin ([…]) 37 °C under a humidified atmosphere with 5% CO2. The cells were seeded in 24 well plates (1 × 10^5 cells per well). The next day, the cells were killed with EtOH (70%, 50 μL) or kept alive and incubated for 30 min at 37 °C with 100 nM of the NACAs in culturing medium. The plate was then imaged on an Odyssey (Li-Cor, 800 nm laser intensity 5.0).
Similarly, these killed and alive cells were incubated with the indium-111 labeled NACAs (100 nM, 2.5 MBq/nmol) in culturing medium. The cells were washed with PBS and collected with NaOH (1.0 M) for γ-counting. These experiments were performed as triplicates.

4T1-Luc2 cells [4] = assay: Fluorescence microscopy of dead and alive cells; format: cell-based, mouse; details: unlabeled, 100 nM, 30 min, 37 °C
Protocol: The 4T1-Luc2 cells were seeded on 10 mm diameter coverslips in 24 well plates (10^5 cells per well). The cells were kept alive or killed with 50 µL EtOH (70%) and incubated in culturing medium with or without unlabeled 3 (100 nM) for 30 min at 37 °C. The cells were gently washed with PBS three times and incubated with Calcein-AM (CAM, 2 µM) and propidium iodide (PI, 4 µM) in PBS for 30 min at 37 °C [24]. Then, the cells were fixated with PFA (4% in PBS, 10 min, RT) and nuclei were stained with DAPI (Sigma-Aldrich, 1:1000 in PBS, 5 min). After final washing with PBS, the coverslips were removed from the well plate and mounted on a microscope slide for fluorescence microscope imaging at 20× magnification.

MCF7-Luc2 tumors = assay: Tumor uptake in doxorubicin- or saline-treated MCF7-Luc2 tumor-bearing mice; format: in vivo, mouse; details: 1 h p.i., ±SEM
Protocol: (§1) The quadruple modality imaging procedure is illustrated in Figure S21. The tumor-bearing mice were injected with [^111In]3 (20 MBq, 2 nmol) in 200 µL PBS into the tail vein. The following day, the mice fasted for four hours before they were injected with [^18F]FDG (10 MBq, 200 µL) in PBS. At 24 h p.i. of [^111In]3 and 1 h p.i. of [^18F]FDG, FLI imaging was performed with a 730 nm excitation and 760 nm emission filter for 400 ms with 4 × 4 binning. Then, the mice received an intraperitoneal injection of D-luciferin (150 mg/kg) maintaining the position of the mice in the bed unaltered. During the onset of the bioluminescence signal, PET/SPECT imaging was performed of the tumors with a 2 cm axial field of view over a total scan time of 30 min, followed by a 2 min full-body CT. Finally, BLI imaging was performed with an open filter for 400 ms with 4 × 4 binning. Imaging was performed under isoflurane anesthesia whilst maintaining the body temperature constant.
Six mice were inoculated bilaterally with MCF7-Luc2 cells (3.0 × 10^6), suspended in 30 µL PBS:Matrigel (1:1; v/v). On days 14, 16, and 18 after inoculation, the tumor-bearing mice received either doxorubicin (5 mg/kg, Janssen Pharmaceuticals, Beerse, Belgium) or a saline solution via i.v. injection. On days 21 and 22 after inoculation, the mice underwent the FLI, BLI, and PET/SPECT/CT imaging procedure (vide supra).
After the final imaging experiments, the mice were sacrificed by cervical dislocation, tumors and organs were collected, weighted, and activity was accurately quantified by γ-counting to determine radioactivity uptake in the percentage of injected dose per gram (%ID/g). After γ-counting, the tumors were frozen in liquid nitrogen and stored at −80 °C overnight. Adjacent cryosections (10 µm) were prepared of the tumor centers for autoradiography. The sections were stored at −20 °C for the radioactivity to decay, before 800 nm fluorescence imaging and histochemical dead cell staining.

EMT6-Luc2 tumors = assay: Tumor uptake in EMT6-Luc2 tumor-bearing mice; format: in vivo, mouse; details: untreated, 1 h p.i., ±SEM
Protocol: as §1, with “constant. […]” for “constant.”
After the final imaging experiments, the mice were sacrificed by cervical dislocation, tumors and organs were collected, weighted, and activity was accurately quantified by γ-counting to determine radioactivity uptake in the percentage of injected dose per gram (%ID/g). […] The sections were stored at −20 °C for the radioactivity to decay, before 800 nm fluorescence imaging and histochemical dead cell staining.

4T1-Luc2 tumors = test system: 4T1-Luc2 tumors; design: method as in PMID 32514888; details: comparison value; cited from earlier work
[5] = In vivo stability (radio-HPLC of urine 1 h after injection); design: species or system mouse; details: mice, i.v., 1 h p.i.
Text: After an hour, the mice were sacrificed by cervical dislocation and blood and urine were collected, which were frozen in liquid nitrogen directly after extraction. […] The supernatant was collected and analyzed by radio-HPLC (Method-D).

CC1(C)C(=CC=C2CCCC(C=CC3=[N+](CCCCCC(=O)NCCOCCOCCOCCOCCNC(=O)CN4CCN(CC(=O)O)CCN(CC(=O)O)CCN(CC(=O)O)CC4)c4ccc(S(=O)(=O)O)cc4C3(C)C)=C2Oc2ccc(S(=O)(=O)O)cc2)N(CCCCS(=O)(=O)O)c2ccc(S(=O)(=O)O)cc21 [Compound 1]
LogD [1]: −3.58 ± 0.07
Protein Binding [2]: 70 ± 0.9%
dead/alive cell binding, fluorescence signal (4T1-Luc2 cells [3]): specifically bound to dead cells and not to live cells

CC1(C)C(=CC=C2CCCC(C=CC3=[N+](CCCCCC(=O)NCCCCC(NC(=O)C(CCCCNC(=O)CCCc4ccc(I)cc4)NC(=O)CN4CCN(CC(=O)O)CCN(CC(=O)O)CCN(CC(=O)O)CC4)C(N)=O)c4ccc(S(=O)(=O)O)cc4C3(C)C)=C2Oc2ccc(S(=O)(=O)O)cc2)N(CCCCS(=O)(=O)O)c2ccc(S(=O)(=O)O)cc21 (stereo not drawn) [Compound 2]
LogD [1]: −2.47 ± 0.01
Protein Binding [2]: 95 ± 0.1%
dead/alive cell binding, fluorescence signal (4T1-Luc2 cells [3]): considerably stronger binding to the dead cells than compound 1

CC1(C)C(/C=C/C2=C(Oc3ccc(S(=O)(=O)O)cc3)C(=C/C=C3\N(CCCCS(=O)(=O)O)c4ccc(S(=O)(=O)O)cc4C3(C)C)/CCC2)=[N+](CCCCCC(=O)NCCCC[C@@H](NC(=O)CCCc2ccc(I)cc2)C(=O)NCc2ccc(CNC(=O)CN3CCN(CC(=O)O)CCN(CC(=O)O)CCN(CC(=O)O)CC3)cc2)c2ccc(S(=O)(=O)O)cc21 [Compound 3]
LogD [1]: −2.73 ± 0.14
Protein Binding [2]: 94 ± 0.2%
NIR-fluorescence binding to dead and alive cells (microscopy) (4T1-Luc2 cells [4]): distinct NIR-fluorescent signal was observed from dead cells; also recorded: binds to dead cells and not to alive cells
dead/alive cell binding, fluorescence signal (4T1-Luc2 cells [3]): considerably stronger binding to the dead cells than compound 1

OC[C@H]1OC(O)[C@H]([18F])[C@@H](O)[C@@H]1O (stereo partly drawn) [[^18F]FDG, reference compound]
tumor uptake of [18F]FDG (MCF7-Luc2 tumors; after doxorubicin treatment (5 mg/kg i.v., 3 injections)): 1.79 ± 0.11 %ID/g
tumor uptake of [18F]FDG (MCF7-Luc2 tumors; after saline treatment (control)): 3.02 ± 0.51 %ID/g
tumor uptake of [18F]FDG (EMT6-Luc2 tumors): 4.13 ± 0.58 %ID/g

CC1(C)C(=CC=C2CCCC(C=CC3=[N+](CCCCCC(=O)NCCOCCOCCOCCOCCNC(=O)CN4CCN(CC(=O)[O-])CCN(CC(=O)[O-])CCN(CC(=O)[O-])CC4)c4ccc(S(=O)(=O)O)cc4C3(C)C)=C2Oc2ccc(S(=O)(=O)O)cc2)N(CCCCS(=O)(=O)O)c2ccc(S(=O)(=O)O)cc21.[111In+3] [[^111In]1, [^111In]In-DOTA-PEG4-IRDye800CW]
Protein Binding [2]: 70%
radioactive tumor uptake in the SPECT images (4T1-Luc2 tumors): 0.26 ± 0.05 %ID/mL

CC1(C)C(=CC=C2CCCC(C=CC3=[N+](CCCCCC(=O)NCCCC[C@H](NC(=O)[C@H](CCCCNC(=O)CCCc4ccc(I)cc4)NC(=O)CN4CCN(CC(=O)[O-])CCN(CC(=O)[O-])CCN(CC(=O)[O-])CC4)C(N)=O)c4ccc(S(=O)(=O)O)cc4C3(C)C)=C2Oc2ccc(S(=O)(=O)O)cc2)N(CCCCS(=O)(=O)O)c2ccc(S(=O)(=O)O)cc21.[111In+3] [[^111In]2]
dead/alive cell binding, radioactivity (4T1-Luc2 cells [3]): increased as compared to [^111In]1
in vivo stability [5]: decomposed after an hour

NCCCC[C@H](NC(=O)CCCc1ccc(I)cc1)C(=O)NCc1ccc(CNC(=O)CN2CCN(CC(=O)[O-])CCN(CC(=O)[O-])CCN(CC(=O)[O-])CC2)cc1.[111In+3] [[^111In]8]
dead/alive cell binding, radioactivity (4T1-Luc2 cells [3]): did not show considerable dead cell binding
